Measurements: ChEMBL document CHEMBL1201862, “PubChem BioAssay data set” (2004)
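1) Cells in 96-well plates. 2) Compound, 48 h, 5 concentrations. 3) Linear interpolation between surrounding doses. 4) Unreached endpoint = highest concentration. GI50 marks 50% less growth.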 Activity calls are given as the source filed them. Cut-off read from the data, not from the text of the source: active = GI50 up to about 1.1 µM and inactive = higher.

Columns and labels:
Assay in all cases: growth of human tumour cells (NCI), 48 h
SK-MEL-2 = test system: SK-MEL-2
PC-3 = test system: PC-3
SNB-19 = test system: SNB-19
HOP-92 = test system: HOP-92
UACC-257 = test system: UACC-257
COLO 205 = test system: COLO 205
U-251 = test system: U-251
HCC 2998 = test system: HCC 2998
A498 = test system: A498
NCI/ADR-RES = test system: NCI/ADR-RES
SW-620 = test system: SW-620
OVCAR-5 = test system: OVCAR-5
NCI-H226 = test system: NCI-H226
CCRF-CEM = test system: CCRF-CEM
ACHN = test system: ACHN
HT-29 = test system: HT-29
OVCAR-8 = test system: OVCAR-8
HL-60 = test system: HL-60
NCI-H23 = test system: NCI-H23
NCI-H460 = test system: NCI-H460

Measured: GI50

Cc1c(S(=O)(=O)c2ccccc2)c(N)n(CCN(C)C)c1C
inactive: SK-MEL-2 > 100 µM | PC-3 86.9 µM | SNB-19 > 100 µM | HOP-92 > 100 µM | UACC-257 > 100 µM | COLO 205 > 100 µM | U-251 > 100 µM | HCC 2998 75 µM | A498 > 100 µM | NCI/ADR-RES > 100 µM | SW-620 > 100 µM | OVCAR-5 > 100 µM | NCI-H226 > 100 µM | CCRF-CEM > 100 µM | ACHN > 100 µM | HT-29 > 100 µM | OVCAR-8 > 100 µM | HL-60 > 100 µM | NCI-H23 > 100 µM | NCI-H460 > 100 µM
